Experimental data as given in patent US20250145641A1, “FUSED BICYCLIC DERIVATIVE, PHARMACEUTICALLY ACCEPTABLE SALT, CRYSTAL FORM THEREOF AND PREPARATION METHOD THEREFOR” (JIANGSU HENGRUI PHARMACEUTICALS CO., LTD., priority 2021, published 2025).

Experiments:
[1] = Pharmacokinetic test in nude mice, intragastric administration; type: in vivo, Balb/c nude mice; settings: i.g., 50 or 100 mg/kg
Method: (§1) The drug concentration in the plasma of the test animals (Balb/c nude mice) at different time points after intragastric administration (i.g.) of the test compounds was determined by using an LC/MS/MS method. The pharmacokinetic performance of the compound of formula I in nude mice was studied and their pharmacokinetic profile was evaluated.
18 Balb/c nude mice, female, divided into 2 groups and purchased from Vital River Laboratory Animal Technology Co., Ltd.
A certain amount of compound was weighed out, and 99.8% (0.5% methylcellulose) was added into the compound, and then 0.2% Tween was added. The mixture was subjected to ultrasonic treatment to obtain a suspension, which was stirred for administration.
The nude mice were subjected to intragastric administration with a dose of 50 mg/kg or 100 mg/kg and an administration volume of 0.2 mL/10 g. […]
The content of the test compounds in the nude mice plasma after intragastric administration of different concentrations of the compound was determined: 20 μL of nude mouse plasma at each time point after administration was mixed with 50 μL of internal standard solution (camptothecin, 100 ng/mL) and 200 μL of acetonitrile, and the mixture was vortexed for 5 min and centrifuged for 10 min at 3700 rpm. […]

[2] = molecular target: T1, AKT1 (Homo sapiens, UniProt P31749); assay: AKT1 kinase activity inhibition (KinEASE-STK S3 HTRF kit); type: biochemical
T1 construct: purchased Invitrogen P2999
T1 sequence (P31749 whole entry): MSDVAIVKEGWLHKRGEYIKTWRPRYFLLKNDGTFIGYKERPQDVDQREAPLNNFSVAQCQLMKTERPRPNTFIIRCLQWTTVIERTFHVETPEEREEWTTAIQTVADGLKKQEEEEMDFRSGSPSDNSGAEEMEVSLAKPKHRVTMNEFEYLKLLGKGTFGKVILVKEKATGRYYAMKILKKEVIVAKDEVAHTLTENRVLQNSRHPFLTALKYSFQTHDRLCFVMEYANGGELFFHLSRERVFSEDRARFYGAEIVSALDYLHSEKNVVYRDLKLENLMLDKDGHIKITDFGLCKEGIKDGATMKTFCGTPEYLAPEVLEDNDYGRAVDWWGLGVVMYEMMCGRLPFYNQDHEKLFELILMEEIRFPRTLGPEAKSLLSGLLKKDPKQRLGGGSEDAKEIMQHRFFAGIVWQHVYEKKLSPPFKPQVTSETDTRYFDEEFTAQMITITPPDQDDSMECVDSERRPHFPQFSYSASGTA
Method: (§2) The mean inhibition of kinase and the IC50 value were measured using a NovoStar microplate reader (BMG, Germany).
(§3) The following methods were used to determine the inhibitory effect of the compound of formula I on the kinase activity of AKT1/AKT2/AKT3 in vitro. The experimental method is briefly described as follows:
(§4) The enzyme activity of AKT1 (Invitrogen, P2999), AKT2 (Invitrogen, PV3184), and AKT3 (Invitrogen, PV3185) was determined using a KinEASE-STK S3 kit (Cisbio, 62ST3PEC). Test compounds were each first subjected to 3-fold gradient dilution with DMSO from 500 μM to obtain a total of 11 concentrations. The 5× buffer in the kit was diluted to 1× buffer, and DTT (Sigma, 43816-10ML) and MgCl2 were added to make the buffer contain 1 mM DTT and 5 mM MgCl2. Compounds were each subjected to 20-fold dilution with 1× buffer for later use. […] The mixture was incubated at room temperature for 60 min, values of signals emitted at […] and 620 nm after excitation at 337 nm were measured by using an HTRF module of a multi-functional microplate detector (BMG Labtech, PHERAstar FS), and the ratio of the readings was multiplied by 10,000 to obtain a ratio value. Dose-response curves were drawn according to the concentration of the compounds and the ratio values by using Graphpad Prism software, and the IC50 values for the inhibitory activity of the compounds were calculated.

[3] = Pharmacokinetic test in rats, injection (i.v.); type: in vivo; settings: SD rats, 1 mg/kg
Method: as §1, with “(SD rats)” for “(Balb/c nude mice)”, “injection (i.v.)” for “intragastric administration (i.g.)”, “rats” for “nude mice”
8 SD rats, half male and half female, divided into 2 groups, purchased from Vital River Laboratory Animal Technology Co., Ltd.
A certain amount of the compound was weighed out, and 5% of DMSO, 5% of Tween 80, and 90% of normal saline were added to obtain a colorless and clear solution.
The rats were subjected to administration by injection with a dose of 1 mg/kg and an administration volume of 5 mL/kg.
The test compound was administered by injection to the rats, and 0.2 mL of blood was collected from the orbit before administration and 5 min, 0.25 h, 0.5 h, 1.0 h, 2.0 h, 4.0 h, 8.0 h, 11.0 h, and 24.0 h after administration. […]
The content of the test compounds in the rat plasma after administration by injection of different concentrations of the compound was determined: 25 μL of rat plasma at each time point after administration was mixed with 50 μL of internal standard solution (camptothecin, 100 ng/mL) and 200 μL of acetonitrile, and the mixture was vortexed for 5 min and centrifuged for 10 min at 3700 rpm. […]

[4] = molecular target: T2, AKT3 (Homo sapiens, UniProt Q9Y243); assay: AKT3 kinase activity inhibition (KinEASE-STK S3 HTRF kit); type: biochemical
T2 construct: purchased Invitrogen PV3185
T2 sequence (Q9Y243 whole entry): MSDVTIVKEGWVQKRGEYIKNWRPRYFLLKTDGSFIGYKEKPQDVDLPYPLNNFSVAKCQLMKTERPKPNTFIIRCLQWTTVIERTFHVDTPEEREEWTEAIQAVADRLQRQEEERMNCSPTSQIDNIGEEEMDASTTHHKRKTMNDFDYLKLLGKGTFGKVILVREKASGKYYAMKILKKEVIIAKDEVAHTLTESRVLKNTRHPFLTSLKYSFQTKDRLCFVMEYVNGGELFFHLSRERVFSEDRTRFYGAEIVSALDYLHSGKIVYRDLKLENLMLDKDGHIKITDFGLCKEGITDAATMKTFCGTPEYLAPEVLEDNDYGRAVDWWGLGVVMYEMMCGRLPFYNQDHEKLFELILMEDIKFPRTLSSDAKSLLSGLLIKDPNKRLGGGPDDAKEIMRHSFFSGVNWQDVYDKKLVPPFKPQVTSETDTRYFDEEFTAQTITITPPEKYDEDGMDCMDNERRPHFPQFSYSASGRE
Method: as §2, §3, §4

[5] = molecular target: T3, AKT2 (Homo sapiens, UniProt P31751); assay: AKT2 kinase activity inhibition (KinEASE-STK S3 HTRF kit); type: biochemical
T3 construct: purchased Invitrogen PV3184
T3 sequence (P31751 whole entry): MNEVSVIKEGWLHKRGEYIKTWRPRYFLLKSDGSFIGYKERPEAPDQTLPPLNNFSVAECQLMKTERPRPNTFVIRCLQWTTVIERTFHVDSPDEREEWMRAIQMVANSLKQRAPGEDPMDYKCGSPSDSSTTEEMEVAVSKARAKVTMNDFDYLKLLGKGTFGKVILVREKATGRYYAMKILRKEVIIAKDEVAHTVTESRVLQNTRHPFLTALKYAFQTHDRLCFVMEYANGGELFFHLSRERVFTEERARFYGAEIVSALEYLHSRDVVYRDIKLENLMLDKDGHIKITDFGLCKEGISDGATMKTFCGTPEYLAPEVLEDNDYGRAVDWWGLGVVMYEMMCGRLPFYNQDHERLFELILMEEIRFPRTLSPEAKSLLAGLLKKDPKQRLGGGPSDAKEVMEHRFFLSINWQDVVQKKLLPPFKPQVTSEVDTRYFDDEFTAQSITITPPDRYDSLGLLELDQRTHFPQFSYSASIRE
Method: as §2, §3, §4

CC(C)NC[C@@H](C(=O)N1C2CCC1CN(c1ncnc3c1C(C)(C)C(=O)N3)C2)c1ccc(Cl)cc1 [Compound of formula I]
pharmacokinetic absorption (conclusion) [1]: good pharmacokinetic absorption | inhibitory effect on AKT1 enzyme (conclusion) [2]: good inhibitory effect | pharmacokinetics (conclusion) [3]: good pharmacokinetics | inhibitory effect on AKT3 enzyme (conclusion) [4]: good inhibitory effect | inhibitory effect on AKT2 enzyme (conclusion) [5]: good inhibitory effect
